The results in this text go back to ChEMBL document CHEMBL1128169, “Thiourea analogues of resiniferatoxin as ligands for the vanilloid receptor” (Bioorg Med Chem Lett, 1995).

The structures appear in SMILES notation.

Transient receptor potential cation channel subfamily V member 1, sequence (Q8NER1 whole entry): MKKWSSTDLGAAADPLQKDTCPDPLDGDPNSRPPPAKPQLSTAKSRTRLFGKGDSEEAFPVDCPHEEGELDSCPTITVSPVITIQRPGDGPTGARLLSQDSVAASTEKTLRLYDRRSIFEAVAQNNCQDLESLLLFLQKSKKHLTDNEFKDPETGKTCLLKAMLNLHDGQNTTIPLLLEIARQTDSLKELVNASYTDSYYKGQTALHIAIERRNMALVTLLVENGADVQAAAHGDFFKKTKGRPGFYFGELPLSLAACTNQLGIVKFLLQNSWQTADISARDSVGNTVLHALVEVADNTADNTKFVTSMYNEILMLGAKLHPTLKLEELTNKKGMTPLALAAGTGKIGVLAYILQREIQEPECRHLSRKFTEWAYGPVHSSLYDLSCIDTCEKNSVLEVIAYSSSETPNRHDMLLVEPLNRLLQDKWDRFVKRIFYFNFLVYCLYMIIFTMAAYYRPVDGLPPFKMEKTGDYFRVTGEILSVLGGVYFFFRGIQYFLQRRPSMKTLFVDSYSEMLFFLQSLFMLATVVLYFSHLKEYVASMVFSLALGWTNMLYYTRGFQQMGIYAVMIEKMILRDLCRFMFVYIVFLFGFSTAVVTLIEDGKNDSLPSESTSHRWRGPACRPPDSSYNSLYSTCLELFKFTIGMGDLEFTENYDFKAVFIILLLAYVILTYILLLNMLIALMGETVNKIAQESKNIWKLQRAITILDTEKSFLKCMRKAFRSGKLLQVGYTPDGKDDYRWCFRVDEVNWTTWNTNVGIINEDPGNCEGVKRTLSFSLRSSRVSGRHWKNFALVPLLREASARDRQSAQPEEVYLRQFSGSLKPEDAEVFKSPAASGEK

This assay has as its target Transient receptor potential cation channel subfamily V member 1 (Homo sapiens, UniProt Q8NER1). The experiment in a line: Displacement of [3H]RTX binding from vanilloid receptor.
For the compound `C=C(C)[C@]12C[C@@H](C)[C@@]34OC(Cc5ccccc5)(O[C@@H]1[C@@H]3C=C(CNC(=S)NCc1ccc(O)c(OC)c1)C[C@]1(O)C(=O)C(C)=C[C@@H]41)O2`, the affinity corresponds to a Ki of 149 nM.

Take `C=C(C)[C@]12C[C@@H](C)[C@@]34OC(Cc5ccccc5)(O[C@@H]1[C@@H]3C=C(C/N=C(\S)Nc1ccc(O)c(OC)c1)C[C@]1(O)C(=O)C(C)=C[C@@H]41)O2`: the inhibition constant (Ki) (commonly the dissociation constant of the complex between target and ligand, obtained from inhibition or displacement) is 66.1 nM.

`C=C(C)[C@]12C[C@@H](C)[C@@]34O[C@](Cc5ccccc5)(O[C@@H]1[C@@H]3C=C(COC(=O)Cc1ccc(O)c(OC)c1)C[C@]1(O)C(=O)C(C)=CC41)O2` (single isomer, unassigned) [RESINIFERATOXIN]: the affinity corresponds to a Ki of 23.1 nM.
